Like-named read-outs stand apart in the source and are kept apart here.
Tests used:
[1] = biological target: T1, catalytic domain (JH1, amino acids 826-1132) of human JAK2 (Homo sapiens, UniProt O60674); assay: JAK2 LanthaScreen JH1 binding assay; settings: read-out: JH1 Bind IC50
T1 construct: catalytic domain (JH1, amino acids 826-1132) of human JAK2; FLAG (N); biotin (biotinylated); purchased Carna Biosciences 08-445-20N; host or cells: baculovirus expression system
Procedure: Example A. JAK2 LanthaScreen […] Binding Assay
JAK2 JH1 binding assay utilizes catalytic domain (JH1, amino acids 826-1132) of human JAK2 expressed as N-terminal FLAG-tagged, biotinylated protein in a baculovirus expression system (Carna Biosciences, Product #08-445-20N). The assay was conducted in black 384-well polystyrene plates in a final reaction volume of 20 μL. JAK2 JH1 (1.5 nM) was incubated with compounds (100 nL serially diluted in DMSO) in the presence of 50 nM fluorescent JAK2-JH1 tracer and 0.5 nM Streptavidin-Tb cryptate (Cisbio Part #610SATLB) in assay buffer (50 mM Tris, pH=7.5, 10 mM MgCl2, 0.01% Brij-35, 0.1% BSA, 1 mM EGTA, 5% Glycerol and 5 mM DTT). Non-specific binding was accessed in the presence of 2 mM ATP. After incubation for 2 hours at 25° C., LanthaScreen signals were read on a PHERAstar FS plate reader (BMG LABTECH). Data was analyzed with IDBS XLfit and GraphPad Prism 5.0 software using a four parameter dose response curve to determine IC50 for each compound.

FLT3 = biological target: T2, FLT3 (Homo sapiens, UniProt P36888); assay: FLT3 enzymatic assay; format: biochemical; settings: 1 mM ATP
T2 sequence (P36888 27-993): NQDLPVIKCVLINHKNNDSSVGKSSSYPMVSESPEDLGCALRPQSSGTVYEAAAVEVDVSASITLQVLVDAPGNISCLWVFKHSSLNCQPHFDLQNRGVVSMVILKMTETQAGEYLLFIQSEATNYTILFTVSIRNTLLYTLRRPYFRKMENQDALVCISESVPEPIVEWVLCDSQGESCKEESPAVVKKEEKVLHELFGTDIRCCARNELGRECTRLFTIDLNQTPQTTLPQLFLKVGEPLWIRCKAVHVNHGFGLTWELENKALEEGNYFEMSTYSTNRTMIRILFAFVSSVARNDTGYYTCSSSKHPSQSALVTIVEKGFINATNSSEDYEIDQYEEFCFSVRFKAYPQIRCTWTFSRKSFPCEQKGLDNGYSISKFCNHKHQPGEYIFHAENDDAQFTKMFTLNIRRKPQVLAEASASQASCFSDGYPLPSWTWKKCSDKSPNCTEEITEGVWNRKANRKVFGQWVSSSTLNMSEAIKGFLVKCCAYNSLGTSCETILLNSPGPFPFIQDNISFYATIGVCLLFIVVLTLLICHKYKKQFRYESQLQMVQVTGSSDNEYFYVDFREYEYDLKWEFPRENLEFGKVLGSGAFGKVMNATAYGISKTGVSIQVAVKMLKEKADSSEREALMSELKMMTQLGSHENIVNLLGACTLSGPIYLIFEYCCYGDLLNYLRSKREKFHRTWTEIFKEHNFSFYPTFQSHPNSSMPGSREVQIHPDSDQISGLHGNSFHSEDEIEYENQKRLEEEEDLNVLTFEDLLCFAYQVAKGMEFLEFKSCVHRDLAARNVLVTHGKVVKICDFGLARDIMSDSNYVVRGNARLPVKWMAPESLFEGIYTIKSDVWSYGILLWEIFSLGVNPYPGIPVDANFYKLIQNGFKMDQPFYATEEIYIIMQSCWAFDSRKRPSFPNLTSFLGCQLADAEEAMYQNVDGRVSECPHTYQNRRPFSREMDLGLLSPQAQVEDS
Method in brief: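 Kinase reaction at room temperature in HEPES 50 mM pH 7.0 with 10 mM MgCl2, 1 mM DTT: 0.011 nM FLT3, 1 mM ATP, 500 nM biotinylated TK substrate, 0.5% DMSO. After 60 min, HTRF read as 665/620 nm ratio; IC50 from fit of percent control activity versus log concentration.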

[2] = biological target: T3, pseudo-kinase domain (JH2) of human V617F mutant JAK2 (Homo sapiens, UniProt O60674, F794H/V617F/W659A/W777A); assay: JAK2 LanthaScreen JH2-V617F binding assay; settings: read-out: JH2 V617F Bind IC50
T3 construct: pseudo-kinase domain (JH2, amino-acids 536-812 with 3 surface mutations W659A, W777A, F794H); His (C); purchased BPS Bioscience 79498; host or cells: baculovirus expression system
T3 sequence (O60674 536-812 V617F/W659A/W777A/F794H): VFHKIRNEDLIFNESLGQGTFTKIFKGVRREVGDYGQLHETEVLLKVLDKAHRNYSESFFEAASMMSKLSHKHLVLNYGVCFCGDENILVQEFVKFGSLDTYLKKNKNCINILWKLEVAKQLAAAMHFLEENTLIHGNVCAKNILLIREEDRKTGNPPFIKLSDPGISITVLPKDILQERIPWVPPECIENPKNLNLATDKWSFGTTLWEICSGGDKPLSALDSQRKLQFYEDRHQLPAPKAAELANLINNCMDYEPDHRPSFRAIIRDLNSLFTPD
Procedure: Example B. JAK2 LanthaScreen JH2-V617F Binding Assay
JAK2 JH2-V617F binding assay utilizes pseudo-kinase domain (JH2, amino-acids 536-812 with 3 surface mutations W659A, W777A, F794H) of human V617F mutant JAK2 expressed as C-terminal His-Avi-tagged, biotinylated protein in a baculovirus expression system (BPS Bioscience, Catalog #79498). The assay was conducted in black 384-well polystyrene plates in a final reaction volume of 20 μL. JAK2 JH2-V617F (0.26 nM) was incubated with compounds (100 nL serially diluted in DMSO) in the presence of 50 nM Fluorescent JAK2-JH2 Tracer (MedChem Express Catalog #HY-102055) and 0.25 nM Streptavidin-Tb cryptate (Cisbio Part #610SATLB) in assay buffer (50 mM Tris, pH=7.5, 10 mM MgCl2, 0.01% Brij-35, 0.1% BSA, 1 mM EGTA, 5% Glycerol and 5 mM DTT). Non-specific binding was accessed in the presence of 2 mM ATP. After incubation for 1 hour at 25° C., LanthaScreen signals were read on a PHERAstar FS plate reader (BMG LABTECH). Data was analyzed with IDBS XLfit and GraphPad Prism 5.0 software using a four parameter dose response curve to determine IC50 for each compound.

T1 sequence (O60674 826-1132): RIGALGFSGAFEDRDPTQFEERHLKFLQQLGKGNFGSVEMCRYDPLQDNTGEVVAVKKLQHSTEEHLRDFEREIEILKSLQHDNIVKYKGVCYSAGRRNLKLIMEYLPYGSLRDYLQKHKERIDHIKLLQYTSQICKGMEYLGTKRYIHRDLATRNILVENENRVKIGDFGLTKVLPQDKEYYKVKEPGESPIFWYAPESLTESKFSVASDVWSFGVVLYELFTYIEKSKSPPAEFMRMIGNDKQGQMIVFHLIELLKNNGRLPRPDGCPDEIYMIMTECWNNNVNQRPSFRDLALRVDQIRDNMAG

Row | Compound | IC50 ([1]; Table A) | IC50 ([1]; Table C) | IC50 (FLT3) | IC50 ([2]; Table A) | IC50 ([2]; Table C)
1 | [2H]C([2H])([2H])n1c(=O)n([C@@H]2CC[C@@H](NC(=O)OC)C2)c2c3c(-c4ccc5c(c4)COC5(C)C)c(-c4cn(CC)nc4F)[nH]c3ncc21 [Example 20, Methyl ((1R,3R)-3-(8-(1,1-dimethyl-1,3-dihydroisobenzofuran-5-yl)-7-(1-ethyl-3-fluoro-1H-pyrazol-4-yl)-3-(methyl-d3)-2-oxo-3,6-dihydroimidazo[4,5-d]pyrrolo[2,3-b]pyridin-1(2H)-yl)cyclopentyl)carbamate] | > 1000 nM | > 1000 nM | > 2500 nM | ≤ 10 nM | ≤ 10 nM
2 | [2H]C([2H])([2H])n1ncc2cc(-c3c(-c4cn(C([2H])(C([2H])([2H])[2H])C([2H])([2H])[2H])nc4F)[nH]c4ncc5c(c34)n([C@@H]3CC[C@@H](NC(=O)OC)C3)c(=O)n5C([2H])([2H])[2H])ccc21 [Example 21, Methyl ((1R,3R)-3-(7-(3-fluoro-1-(propan-2-yl-d7)-1H-pyrazol-4-yl)-3-(methyl-d3)-8-(1-(methyl-d3)-1H-indazol-5-yl)-2-oxo-3,6-dihydroimidazo[4,5-d]pyrrolo[2,3-b]pyridin-1(2H)-yl)cyclopentyl)carbamate] | > 1000 nM | > 1000 nM | 1250 to 2500 nM | ≤ 10 nM | ≤ 10 nM

Source: US12084430B2, “Tricyclic urea compounds as JAK2 V617F inhibitors” (Incyte Corporation, priority 2022, dated 2024)
